From US20060281771A1, “SYNERGISTIC MODULATION OF FLT3 KINASE USING AMINOQUINOLINE AND AMINOQUINAZOLINE KINASE MODULATORS” (priority 2005, published 2006)

Each compound was assayed on MV4-11 cells (assay: Inhibition of MV4-11 cell proliferation (CellTiterGlo, 72 h)). Details: Homo sapiens; 72 h growth inhibition.
Type: cell-based
Procedure: To assess the cellular potency of the FLT3 inhibitors of Formula I′, FLT3 specific growth inhibition was measured in the leukemic cell line MV4-11 (ATCC Number: CRL-9591). […] MV4-11 cells cannot grow and survive without active FLT3ITD.
To measure proliferation inhibition by test compounds, the luciferase based CellTiterGlo reagent (Promega), which quantifies total cell number based on total cellular ATP concentration, was used. Cells are plated at 10,000 cells per well in 100 ul of in RPMI media containing penn/strep, 10% FBS and 1 ng/ml GM-CSF or 1 ng/ml IL-3 for MV4-11 and Baf3 cells respectively.
Compound dilutions or 0.1% DMSO (vehicle control) are added to cells and the cells are allowed to grow for 72 hours at standard cell growth conditions (37° C., 5% CO2). For activity measurements in MV4-11 cells grown in 50% plasma, cells were plated at 10,000 cells per well in a 1:1 mixture of growth media and human plasma (final volume of 100 μL). To measure total cell growth an equal volume of CellTiterGlo reagent was added to each well, according to the manufacturer's instructions, and luminescence was quantified. Total cell growth was quantified as the difference in luminescent counts (relative light units, RLU) of cell number at Day 0 compared to total cell number at Day 3 (72 hours of growth and/or compound treatment). One hundred percent inhibition of growth is defined as an RLU equivalent to the Day 0 reading. Zero percent inhibition was defined as the RLU signal for the DMSO vehicle control at Day 3 of growth. All data points are an average of triplicate samples. […] Inhibition and IC50 data analysis was done with GraphPad Prism using a non-linear regression fit with a multiparamater, sigmoidal dose-response (variable slope) equation.
MV4-11 cells express the FLT3 internal tandem duplication mutation, and thus are entirely dependent upon FLT3 activity for growth. […] In contrast, the Baf3 cell proliferation is driven by the cytokine IL-3 and thus are used as a non-specific toxicity control for test compounds.

| Structure (SMILES) | IC50 [nM] |
| --- | --- |
| CC(C)Oc1ccc(NC(=O)OC2CCN(c3ccnc4ccccc34)CC2)cc1 [Compound 41] | > 10000 |
| COc1cc2ncc(C#N)c(N3CCC(OC(=O)Nc4ccc(C(C)C)cc4)CC3)c2cc1OC [Compound 42, (4-Isopropyl-phenyl)-carbamic acid 1-(3-cyano-6,7-dimethoxy-quinolin-4-yl)-piperidin-4-yl ester] | 2100 |
| COc1cc2ncnc(N3CCC(NC(=O)Nc4ccc(N5CCOCC5)cc4)C3)c2cc1OC (centres unmarked) [Compound 43, 1-[1-(6,7-Dimethoxy-quinazolin-4-yl)-pyrrolidin-3-yl]-3-(4-morpholin-4-yl-phenyl)-urea] | > 5000 |
| COc1cc2ncnc(N3CCC(NC(=O)Nc4ccc(OC5CCC5)nc4)C3)c2cc1OC (centres unmarked) [Compound 44, 1-(6-Cyclobutoxy-pyridin-3-yl)-3-[1-(6,7-dimethoxy-quinazolin-4-yl)-pyrrolidin-3-yl]-urea] | 1000 |
| COc1cc2ncnc(N3CCC(NC(=O)Nc4ccc(OC5CCCC5)nc4)C3)c2cc1OC (centres unmarked) [Compound 45, 1-(6-Cyclopentyloxy-pyridin-3-yl)-3-[1-(6,7-dimethoxy-quinazolin-4-yl)-pyrrolidin-3-yl]-urea] | 1100 |
| COc1cc2ncnc(N3CCC(NC(=O)Nc4ccc(N5CCCC5)nc4)C3)c2cc1OC (centres unmarked) [Compound 46, 1-[1-(6,7-Dimethoxy-quinazolin-4-yl)-pyrrolidin-3-yl]-3-(6-pyrrolidin-1-yl-pyridin-3-yl)-urea] | 3500 |
| COc1cc2ncnc(N3CCC(NC(=O)Nc4ccc(N5CCCCC5)cc4)C3)c2cc1OC (centres unmarked) [Compound 47, 1-[1-(6,7-Dimethoxy-quinazolin-4-yl)-pyrrolidin-3-yl]-3-(4-piperidin-1-yl-phenyl)-urea] | 3900 |
| COc1cc2ncnc(N3CCC(NC(=O)Nc4ccc(Cl)cc4)C3)c2cc1OC (centres unmarked) [Compound 48, 1-(4-Chloro-phenyl)-3-[1-(6,7-dimethoxy-quinazolin-4-yl)-pyrrolidin-3-yl]-urea] | 2500 |
| COc1cc2ncnc(N3CCC(NC(=O)Nc4ccc(C5CCCCC5)cc4)C3)c2cc1OC (centres unmarked) [Compound 50, 1-(4-Cyclohexyl-phenyl)-3-[1-(6,7-dimethoxy-quinazolin-4-yl)-pyrrolidin-3-yl]-urea] | 1700 |
| COc1cc2ncnc(N3CCC(NC(=O)Nc4ccc(Oc5ccccc5)cc4)C3)c2cc1OC (centres unmarked) [Compound 51, 1-[1-(6,7-Dimethoxy-quinazolin-4-yl)-pyrrolidin-3-yl]-3-(4-phenoxy-phenyl)-urea] | 1200 |
| COc1cc2ncnc(N3CCC(NC(=O)Nc4ccc(OC5CCCC5)cc4)C3)c2cc1OC (centres unmarked) [Compound 53, 1-(4-Cyclopentyloxy-phenyl)-3-[1-(6,7-dimethoxy-quinazolin-4-yl)-pyrrolidin-3-yl]-urea] | 1500 |
| COc1cc2ncnc(N3CCC(OC(=O)Nc4ccc(OC5CCCC5)cc4)C3)c2cc1OC (centres unmarked) [Compound 54, (4-Cyclopentyloxy-phenyl)-carbamic acid 1-(6,7-dimethoxy-quinazolin-4-yl)-pyrrolidin-3-yl ester] | 1500 |
| COc1cc2ncnc(N3CCC(COC(=O)Nc4ccc(OC5CCCC5)cc4)CC3)c2cc1OC [Compound 56, (4-Cyclopentyloxy-phenyl)-carbamic acid 1-(6,7-dimethoxy-quinazolin-4-yl)-piperidin-4-ylmethyl ester] | 740 |
| COc1cc2ncnc(N3CCC(NC(=O)Nc4ccc(Cl)cc4)CC3)c2cc1OC [Compound 61, 1-(4-Chloro-phenyl)-3-[1-(6,7-dimethoxy-quinazolin-4-yl)-piperidin-4-yl]-urea] | 9400 |
